This assay concerns the target human APJ receptor (Homo sapiens (Human), UniProt P35414). Briefly: biochemical. In kind it is biochemical. As to conditions: [35S]GTPγS binding, CHO membranes expressing human APJ receptor; read-out: Activity hAPJ SPA EC50 IP. The method in brief: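 Membranes of a stable CHO line carrying human APJ (pFLAG-CMV-3) were used in a GTPγS binding format; buffer GDP, MgCl2 and NaCl were optimized, and plates were read after 90 min at RT.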

Some results are limits rather than exact numbers.

human APJ receptor, sequence (P35414 whole entry): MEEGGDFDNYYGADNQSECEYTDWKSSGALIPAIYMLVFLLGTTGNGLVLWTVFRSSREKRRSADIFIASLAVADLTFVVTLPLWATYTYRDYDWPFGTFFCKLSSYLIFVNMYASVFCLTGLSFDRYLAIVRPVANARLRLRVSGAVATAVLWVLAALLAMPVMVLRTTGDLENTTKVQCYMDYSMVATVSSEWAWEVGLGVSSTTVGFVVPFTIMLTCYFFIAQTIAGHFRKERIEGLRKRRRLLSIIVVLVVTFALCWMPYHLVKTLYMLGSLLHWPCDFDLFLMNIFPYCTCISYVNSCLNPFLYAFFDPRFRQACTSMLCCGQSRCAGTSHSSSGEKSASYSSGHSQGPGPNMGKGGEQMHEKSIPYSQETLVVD

Usually EC50 stands for the concentration giving half of the maximal effect. For the compound `COc1cccc(OC)c1-n1c(NS(=O)(=O)[C@@H](C)[C@H](OC)c2ncc(Cl)cn2)nnc1-c1cc(C)[nH]n1` [Example 344.0, (1R,2S)-1-(5-chloro-2-pyrimidinyl)-N-(4-(2,6-dimethoxyphenyl)-5-(5-methyl-1H-pyrazol-3-yl)-4H-1,2,4-triazol-3-yl)-1-methoxy-2-propanesulfonamide], the EC50 was 0.63 nM.

As for `COc1cccc(OC)c1-n1c(NS(=O)(=O)[C@@H](C)[C@H](OC)c2ncc(F)cn2)nnc1-c1cc(C)[nH]n1` [Example 345.0, (1R,2S)-N-(4-(2,6-dimethoxyphenyl)-5-(5-methyl-1H-pyrazol-3-yl)-4H-1,2,4-triazol-3-yl)-1-(5-fluoro-2-pyrimidinyl)-1-methoxy-2-propanesulfonamide], the EC50 worked out at 8.1 nM.

Turning to `COc1cccc(OC)c1-n1c(NS(=O)(=O)[C@@H](C)[C@H](C)c2ncc(C)cn2)nnc1-c1cc(C)[nH]n1` [Example 346.0, (2S,3R)-N-(4-(2,6-dimethoxyphenyl)-5-(5-methyl-1H-pyrazol-3-yl)-4H-1,2,4-triazol-3-yl)-3-(5-methyl-2-pyrimidinyl)-2-butanesulfonamide], the EC50 was found to be 1.5 nM.

For `COc1cccc(OC)c1-n1c(NS(=O)(=O)[C@@H](C)[C@H](O)c2cnc(C)cn2)nnc1-c1cc(C)[nH]n1` [Example 347.0, (1R,2S)-N-(4-(2,6-Dimethoxyphenyl)-5-(5-methyl-1H-pyrazol-3-yl)-4H-1,2,4-triazol-3-yl)-1-hydroxy-1-(5-methyl-2-pyrazinyl)-2-propanesulfonamide], the EC50 came out at 3.8 nM.

On to `COc1cccc(OC)c1-n1c(NS(=O)(=O)[C@@H](C)[C@H](OC)c2cnc(C)cn2)nnc1-c1cc(C)[nH]n1` [Example 348.0, (1R,2S)-N-(4-(2,6-dimethoxyphenyl)-5-(5-methyl-1H-pyrazol-3-yl)-4H-1,2,4-triazol-3-yl)-1-methoxy-1-(5-methyl-2-pyrazinyl)-2-propanesulfonamide], for which the EC50 came to 4.3 nM.

For `COc1cccc(OC)c1-n1c(NS(=O)(=O)[C@@H](C)[C@H](O)c2ncc(C)cn2)nnc1-c1cc(C)n[nH]1` [Example 349.0, (1R,2S)-N-(4-(2,6-Dimethoxyphenyl)-5-(3-methyl-1H-pyrazol-5-yl)-4H-1,2,4-triazol-3-yl)-1-hydroxy-1-(5-methylpyrimidin-2-yl)propane-2-sulfonamide], the EC50 turned out to be 2.1 nM.

In the case of `COc1cccc(OC)c1-n1c(NS(=O)(=O)[C@@H](C)[C@@H](OC(C)C)c2ncc(C)cn2)nnc1-c1ccn(C)n1` [Example 355.0, (1S,2S)-N-(4-(2,6-dimethoxyphenyl)-5-(1-methyl-1H-pyrazol-3-yl)-4H-1,2,4-triazol-3-yl)-1-isopropoxy-1-(5-methylpyrimidin-2-yl)propane-2-sulfonamide], the EC50 came out at 0.47 nM.

For the compound `O=S(=O)(Cc1ccc(Cl)cc1)Nc1nnc(-c2cccs2)n1-c1ccccc1C(F)(F)F` [Example 356.0, 1-(4-Chlorophenyl)-N-(5-(thiophen-2-yl)-4-(2-(trifluoromethyl)phenyl)-4H-1,2,4-triazol-3-yl)methanesulfonamide], the EC50 is above 12500 nM.

For the compound `O=S(=O)(CCc1ccc(Cl)cc1)Nc1nnc(-c2cccs2)n1-c1ccccc1C(F)(F)F` [Example 357.0, 2-(4-Chlorophenyl)-N-(5-(thiophen-2-yl)-4-(2-(trifluoromethyl)phenyl)-4H-1,2,4-triazol-3-yl)ethanesulfonamide], the EC50 is above 12500 nM.

For the compound `COc1ccc(S(C)(=O)=O)cc1-n1c(NS(=O)(=O)CCc2ccc(F)cc2)nnc1-c1cccs1` [Example 358.0, 2-(4-Fluorophenyl)-N-(4-(2-methoxy-5-(methylsulfonyl)phenyl)-5-(thiophen-2-yl)-4H-1,2,4-triazol-3-yl)ethanesulfonamide], the EC50 came to 34 nM.

As to `COc1ccccc1-n1c(NS(=O)(=O)CCc2ccc(F)cc2)nnc1-c1cccs1` [Example 359.0, 2-(4-Fluorophenyl)-N-(4-(2-methoxyphenyl)-5-(thiophen-2-yl)-4H-1,2,4-triazol-3-yl)ethanesulfonamide], the EC50 was found to be 143 nM.

With `COc1ccc(Cl)cc1-n1c(NS(=O)(=O)CCc2ccc(F)cc2)nnc1-c1cccs1` [Example 360.0, N-(4-(5-Chloro-2-methoxyphenyl)-5-(thiophen-2-yl)-4H-1,2,4-triazol-3-yl)-2-(4-fluorophenyl)ethanesulfonamide], the EC50 is 194 nM.

In the case of `COc1cccc(OC)c1-n1c(NS(=O)(=O)CCC(=O)N2CCCC2)nnc1-c1cccs1` [Example 361.0, N-(4-(2,6-Dimethoxyphenyl)-5-(thiophen-2-yl)-4H-1,2,4-triazol-3-yl)-3-oxo-3-(pyrrolidin-1-yl)propane-1-sulfonamide], the EC50 was found to be 34 nM.

With `CCS(=O)(=O)Nc1nnc(-c2cc([C@@H](O)c3ccc(Cl)cc3S(C)(=O)=O)n(C)n2)n1-c1c(OC)cccc1OC` [Example 382.0, N-(5-(5-((R)-(4-Chloro-2-(methylsulfonyl)phenyl)(hydroxy)methyl)-1-methyl-1H-pyrazol-3-yl)-4-(2,6-dimethoxyphenyl)-4H-1,2,4-triazol-3-yl)ethanesulfonamide and N-(5-(5-((S)-(4-chloro-2-(methylsulfonyl)phenyl)(hydroxy)methyl)-1-methyl-H-pyrazol-3-yl)-4-(2,6-dimethoxyphenyl)-4H-1,2,4-triazol-3-yl)ethanesulfonamide], the EC50 amounted to 260 nM.

For `COc1ccc(C(=O)O)cc1-n1c(NS(=O)(=O)Cc2ccc(Cl)cc2)nnc1-c1cccs1` [Example 384.0, 3-(3-((4-Chlorophenyl)methylsulfonamido)-5-(thiophen-2-yl)-4H-1,2,4-triazol-4-yl)-4-methoxybenzoic acid], the EC50 is above 12500 nM.

Regarding `COc1ccccc1-n1c(NS(=O)(=O)Cc2ccc(Cl)cc2)nnc1-c1cccs1` [Example 385.0, 1-(4-Chlorophenyl)-N-(4-(2-methoxyphenyl)-5-(thiophen-2-yl)-4H-1,2,4-triazol-3-yl)methanesulfonamide], the EC50 is above 12500 nM.

`COc1ccccc1-n1c(NS(=O)(=O)CCC(F)(F)F)nnc1-c1cccs1` [Example 386.0, 3,3,3-Trifluoro-N-(4-(2-methoxyphenyl)-5-(2-thiophenyl)-4H-1,2,4-triazol-3-yl)-1-propanesulfonamide]: the EC50 was above 12500 nM.

Regarding `CCn1ccc(-c2nnc(NS(=O)(=O)[C@@H](C)[C@H](OC)c3ncc(C)cn3)n2-c2c(OC)cccc2OC)n1` [Example 387.0, (1R,2S)-N-(4-(2,6-Dimethoxyphenyl)-5-(1-ethyl-1H-pyrazol-3-yl)-4H-1,2,4-triazol-3-yl)-1-methoxy-1-(5-methylpyrimidin-2-yl)propane-2-sulfonamide], the EC50 was 0.55 nM.

`CCn1ccc(-c2nnc(NS(=O)(=O)[C@@H](C)[C@H](O)c3ncc(C)cn3)n2-c2c(OC)cccc2OC)n1` [Example 388.0, (1R,2S)-N-(4-(2,6-Dimethoxyphenyl)-5-(1-ethyl-1H-pyrazol-3-yl)-4H-1,2,4-triazol-3-yl)-1-hydroxy-1-(5-methylpyrimidin-2-yl)propane-2-sulfonamide]: the EC50 came to 0.37 nM.

Regarding `CCn1ccc(-c2nnc(NS(=O)(=O)[C@@H](C)[C@H](C)c3ncc(C)cn3)n2-c2c(OC)cccc2OC)n1` [Example 389.0, (2S,3R)-N-(4-(2,6-Dimethoxyphenyl)-5-(1-ethyl-1H-pyrazol-3-yl)-4H-1,2,4-triazol-3-yl)-3-(5-methylpyrimidin-2-yl)butane-2-sulfonamide], the EC50 came to 0.34 nM.

As to `CCn1ccc(-c2nnc(NS(=O)(=O)[C@@H](C)[C@@](O)(c3ncc(C)cn3)C(F)(F)F)n2-c2c(OC)cccc2OC)n1` [Example 390.0, (2S,3R)-N-(4-(2,6-Dimethoxyphenyl)-5-(1-ethyl-1H-pyrazol-3-yl)-4H-1,2,4-triazol-3-yl)-4,4,4-trifluoro-3-hydroxy-3-(5-methylpyrimidin-2-yl)butane-2-sulfonamide and (2S,3S)-N-(4-(2,6-dimethoxyphenyl)-5-(1-ethyl-H-pyrazol-3-yl)-4H-1,2,4-triazol-3-yl)-4,4,4-trifluoro-3-hydroxy-3-(5-methylpyrimidin-2-yl)butane-2-sulfonamide], the EC50 worked out at 73 nM.

`CCO[C@H](c1ncc(Cl)cn1)[C@H](C)S(=O)(=O)Nc1nnc(-c2cc(C)n[nH]2)n1-c1c(OC)cccc1OC` [Example 392.0, (1R,2S)-1-(5-Chloropyrimidin-2-yl)-N-(4-(2,6-dimethoxyphenyl)-5-(3-methyl-1H-pyrazol-5-yl)-4H-1,2,4-triazol-3-yl)-1-ethoxypropane-2-sulfonamide]: the EC50 worked out at 1 nM.

For `CCn1ccc(-c2nnc(NS(=O)(=O)[C@@H](C)[C@H](OC)c3ncc(Cl)cn3)n2-c2c(OC)cccc2OC)n1` [Example 393.0, (1R,2S)-1-(5-chloropyrimidin-2-yl)-N-(4-(2,6-dimethoxyphenyl)-5-(1-ethyl-1H-pyrazol-3-yl)-4H-1,2,4-triazol-3-yl)-1-methoxypropane-2-sulfonamide], the EC50 was determined as 0.47 nM.

For the compound `CCO[C@H](c1ncc(Cl)cn1)[C@H](C)S(=O)(=O)Nc1nnc(-c2ccn(CC)n2)n1-c1c(OC)cccc1OC` [Example 394.0, (1R,2S)-1-(5-chloropyrimidin-2-yl)-N-(4-(2,6-dimethoxyphenyl)-5-(1-ethyl-1H-pyrazol-3-yl)-4H-1,2,4-triazol-3-yl)-1-ethoxypropane-2-sulfonamide], the EC50 was determined as 0.54 nM.

Regarding `COc1cccc(OC)c1-n1c(NS(=O)(=O)[C@@H](C)[C@H](OC)c2ncc(C)cn2)nnc1-c1c(C)nc2ccccn12` [Example 410.0, (1R,25)-N-(4-(2,6-dimethoxyphenyl)-5-(2-methylimidazo[1,2-a]pyridin-3-yl)-4H-1,2,4-triazol-3-yl)-1-methoxy-1-(5-methylpyrimidin-2-yl)propane-2-sulfonamide], the EC50 worked out at 940 nM.

Regarding `COc1cccc(OC)c1-n1c(NS(=O)(=O)[C@@H](C)[C@H](OC)c2ncc(C)cn2)nnc1-c1n[nH]c2ccccc12` [Example 411.0], the EC50 is 58 nM.

(Values after patent US11046680B1, “Heteroaryl-substituted triazoles as APJ receptor agonists” (priority 2016, dated 2021).)
